Data set [1] concerns influenza viruses (A/PR8/34/H1N1). Description: microbe, parasite or virus in culture. The settings on record: H1N1|PR8, MDCK, read-out: EC50 Antiviral effect (50% effective concentration), viral infection-preventing effect.
Data set [2] has the same test system. Description: microbe, parasite or virus in culture. To be noted: H1N1|PR8, MDCK, read-out: EC50 Antiviral effect (50% effective concentration), viral infectivity-inhibiting effect.
Data set [3] shares this test system. In words: Hemagglutination assay with chicken erythrocytes. To be noted: final concentrations 0 to 16 μmol/l, FIG. 3. Type of data set: cell-based, influenza virus.
For data set [4] the test system is unchanged. The settings on record: for EC50: read-out: EC50 Antiviral effect (50% effective concentration), viral infection-preventing effect.
The subject of data set [5] is canine kidney cultured cells (MDCK). To be noted: read-out: CC50 Cytotoxicity (50% cytotoxic concentration); Table 3.
Data set [6] has as its system influenza viruses (A/PR8/34/H1N1). The settings on record: for EC50: read-out: EC50 Antiviral effect (50% effective concentration), viral infectivity-inhibiting effect.

This note sets out measurements from patent US8952055B2 (priority 2008, dated 2015).

Like-named read-outs stand apart in the source and are kept apart here.

Turning to `CC(=O)N[C@H]1[C@H]([C@H](O)[C@H](O)CO)OC(C(=O)O)=C[C@@H]1N=C(N)N` [zanamivir], the EC50 in data set [1] was determined as 38 µM; in data set [2] it was 6.3 µM.
For `O=C(O[C@@H]1Cc2c(O)cc(O)cc2O[C@@H]1c1cc(O)c(O)c(O)c1)c1cc(O)c(O)c(O)c1` [EGCG, epigallocatechin gallate], the “suppression of agglutination of the erythrocytes” value in data set [3] is “not observed”. Also, the “SI Selectivity (Selective Index = CC50/EC50)” value in data set [4] (Table 3, viral infection-preventing effect) is 2.91; in data set [6] (Table 4, viral infectivity-inhibiting effect), 703. In addition, the EC50 in data set [4] was found to be 94.6 µM; in data set [4] (Table 5, Example 3, comparison with zanamivir and oseltamivir phosphate), 94.7 µM; in data set [6] (Table 4, sample incubated with A/PR8/34/H1N1 for 30 minutes before application to MDCK cells), 0.391 µM; in data set [6] (Table 6, Example 3, comparison with zanamivir and oseltamivir phosphate), 0.391 µM. For the same compound, the CC50 in data set [5] came out at 276 µM.
Regarding `CCOC(=O)C1=C[C@@H](OC(CC)CC)[C@H](NC(C)=O)[C@@H](N)C1` [oseltamivir phosphate], the EC50 came out at 58.2 µM in data set [1] and 56.2 µM in data set [2].
